Activity calls are given as the source filed them. The rule behind the calls is not given here.
What was measured:
[1] = biological target: T1, Prostaglandin G/H synthase 1 (Homo sapiens, UniProt P23219)
Rattus norvegicus [2] = organism: Rattus norvegicus; assay: animal or person; assay type: functional
Rattus norvegicus [3] = organism: Rattus norvegicus; assay: animal or person; assay type: functional; remark: listed apart in the source
physchem = settings: octanol/water
Rattus norvegicus [4] = organism: Rattus norvegicus; assay: animal or person; assay type: functional; remark: listed apart in the source
Rattus norvegicus [5] = organism: Rattus norvegicus; assay: animal or person; assay type: functional; remark: listed apart in the source
Rattus norvegicus [6] = organism: Rattus norvegicus; assay: animal or person; assay type: functional; remark: listed apart in the source
Rattus norvegicus [7] = organism: Rattus norvegicus; assay: animal or person; assay type: functional; remark: listed apart in the source
Rattus norvegicus [8] = organism: Rattus norvegicus; assay: animal or person; settings: read-out: Inhibition
[9] = mouse, in vivo, po, 200 mg/kg
[10] = mouse, in vivo, po, 20 mg/kg
[11] = biological target: T2, Prostaglandin G/H synthase 2 (Homo sapiens) (UniProt P35354)
T2 sequence (whole entry): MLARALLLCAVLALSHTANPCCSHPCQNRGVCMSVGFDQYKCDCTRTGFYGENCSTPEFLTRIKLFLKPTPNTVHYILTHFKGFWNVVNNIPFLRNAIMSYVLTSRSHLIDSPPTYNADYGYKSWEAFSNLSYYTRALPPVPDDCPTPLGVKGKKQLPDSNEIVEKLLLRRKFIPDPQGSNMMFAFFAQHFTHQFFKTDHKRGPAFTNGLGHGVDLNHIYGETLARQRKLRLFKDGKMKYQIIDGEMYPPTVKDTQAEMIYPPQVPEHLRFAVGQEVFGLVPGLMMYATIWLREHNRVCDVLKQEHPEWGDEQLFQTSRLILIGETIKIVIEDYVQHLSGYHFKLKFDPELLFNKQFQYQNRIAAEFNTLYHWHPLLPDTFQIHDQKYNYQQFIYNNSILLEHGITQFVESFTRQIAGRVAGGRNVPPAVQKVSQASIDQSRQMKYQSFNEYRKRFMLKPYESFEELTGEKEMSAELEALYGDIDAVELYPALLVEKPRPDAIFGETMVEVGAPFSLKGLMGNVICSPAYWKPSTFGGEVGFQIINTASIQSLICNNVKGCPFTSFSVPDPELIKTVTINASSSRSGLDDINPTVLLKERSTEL

[12] = biological target: T1, Prostaglandin G/H synthase 1; remark: listed apart in the source
[13] = rat, in vivo, po, 200 mg/kg
Rattus norvegicus [14] = organism: Rattus norvegicus; assay: animal or person; assay type: functional; remark: listed apart in the source
Rattus norvegicus [15] = organism: Rattus norvegicus; assay: animal or person; assay type: functional; remark: listed apart in the source

T1 sequence (P23219 whole entry): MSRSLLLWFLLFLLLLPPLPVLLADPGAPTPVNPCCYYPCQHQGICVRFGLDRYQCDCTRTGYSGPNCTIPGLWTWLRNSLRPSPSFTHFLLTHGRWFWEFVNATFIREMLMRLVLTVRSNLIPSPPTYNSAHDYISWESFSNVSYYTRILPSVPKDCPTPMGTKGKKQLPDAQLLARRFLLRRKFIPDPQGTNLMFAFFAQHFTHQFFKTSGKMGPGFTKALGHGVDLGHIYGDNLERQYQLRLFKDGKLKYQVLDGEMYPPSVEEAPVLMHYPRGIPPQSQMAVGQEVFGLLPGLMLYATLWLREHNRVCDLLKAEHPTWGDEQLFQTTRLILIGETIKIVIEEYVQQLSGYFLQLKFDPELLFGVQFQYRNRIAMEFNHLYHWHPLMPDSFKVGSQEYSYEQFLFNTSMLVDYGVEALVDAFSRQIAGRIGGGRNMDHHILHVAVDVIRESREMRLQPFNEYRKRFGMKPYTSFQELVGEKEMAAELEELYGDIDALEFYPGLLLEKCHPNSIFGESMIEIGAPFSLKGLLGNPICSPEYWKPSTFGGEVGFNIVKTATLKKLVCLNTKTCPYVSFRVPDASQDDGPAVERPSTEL

| IC50 [1] [µM] | Structure (SMILES) | inhibition in vivo at 2 mg/kg (Rattus norvegicus [2]) [%] | also measured |
| --- | --- | --- | --- |
| 1.9 | NS(=O)(=O)c1ccc(-n2cc(C(F)(F)F)nc2-c2ccc(F)cc2)cc1 | 98 | – |
| – | CS(=O)(=O)c1ccc(-n2cc(C(F)(F)F)nc2-c2ccccc2F)cc1 | 97 | – |
| > 100 | COc1c(Cl)cc(-c2nc(C(F)(F)F)cn2-c2ccc(S(C)(=O)=O)cc2)cc1Cl | 25 | – |
| > 100 | CS(=O)(=O)c1ccc(-n2cc(-c3ccccc3)nc2-c2ccc(Cl)cc2)cc1 | 6 | – |
| – | COc1cc(-c2nc(C(F)(F)F)cn2-c2ccc(S(C)(=O)=O)cc2)ccc1Cl | 0 | – |
| – | CS(=O)(=O)c1ccc(-n2cc(C(F)(F)F)nc2-c2ccc(Cl)cc2)cc1 | 98 | ED50 (Rattus norvegicus [3]): 9 mg/kg; logP (physchem): 3.3 |
| – | CS(=O)(=O)c1ccc(-n2cc(C(F)(F)F)nc2-c2cccc(C(F)(F)F)c2)cc1 | 42 | – |
| – | CS(=O)(=O)c1ccc(-n2cc(C#N)nc2-c2ccc(Cl)cc2)cc1 | 69 | – |
| – | CS(=O)(=O)c1ccc(-n2cc(C(F)(F)F)nc2-c2cccc(F)c2)cc1 | 88 | – |
| – | COc1ccc2c(c1)c(CC(=O)O)c(C)n2C(=O)c1ccc(Cl)cc1 [INDOMETHACIN] | – | ED50 (Rattus norvegicus [4]): 60 mg/kg |
| > 100 | CS(=O)(=O)c1ccc(-n2cc(COc3ccc(Cl)cc3)nc2-c2ccc(Cl)cc2)cc1 | 15 | – |
| – | Cc1cc(F)cc(-c2nc(C(F)(F)F)cn2-c2ccc(S(N)(=O)=O)cc2)c1 | 80 | – |
| – | CS(=O)(=O)c1ccc(-n2cc(C(F)(F)F)nc2-c2ccccc2)cc1 | 98 | ED50 (Rattus norvegicus [5]): 56 mg/kg; ED50 (Rattus norvegicus [3]): 20.8 mg/kg |
| – | COc1cc(-c2nc(C(F)(F)F)cn2-c2ccc(S(N)(=O)=O)cc2)ccc1Cl | 100 | – |
| – | NS(=O)(=O)c1ccc(-n2cc(C(F)(F)F)nc2-c2ccc(F)c(F)c2)cc1 | 83 | – |
| – | Cc1ccc(-c2nc(C(F)(F)F)cn2-c2ccc(S(C)(=O)=O)cc2)cc1F | 47 | – |
| > 100 | CS(=O)(=O)c1ccc(-n2cc(CN)nc2-c2ccc(Cl)cc2)cc1 | – | – |
| – | CS(=O)(=O)c1ccc(-n2cc(C(F)(F)F)nc2-c2ccc3c(c2)OCO3)cc1 | 78 | – |
| > 100 | CSCc1cn(-c2ccc(S(C)(=O)=O)cc2)c(-c2ccc(Cl)cc2)n1 | 10 | – |

| IC50 [1] [µM] | Structure (SMILES) | inhibition in vivo at 2 mg/kg (Rattus norvegicus [2]) [%] | also measured |
| --- | --- | --- | --- |
| > 100 | CS(=O)(=O)c1ccc(-n2ccnc2-c2ccccc2)cc1 | – | – |
| – | CSc1ccc(-c2nc(C(F)(F)F)cn2-c2ccc(S(C)(=O)=O)cc2)cc1Cl | 0 | – |
| > 100 | Cc1cc(Cl)cc(-c2nc(C(F)(F)F)cn2-c2ccc(S(N)(=O)=O)cc2)c1 | 61 | – |
| 4.5 | NS(=O)(=O)c1ccc(-n2cc(C(F)(F)F)nc2-c2cccc(Br)c2)cc1 | – | – |
| – | CSc1ccc(-c2nc(C(F)(F)F)cn2-c2ccc(S(C)(=O)=O)cc2)cc1 | 79 | – |
| > 100 | CS(=O)(=O)Cc1cn(-c2ccc(S(C)(=O)=O)cc2)c(-c2ccc(Cl)cc2)n1 | – | – |
| – | Cc1ccc(-c2nc(C(F)(F)F)cn2-c2ccc(S(N)(=O)=O)cc2)cc1 | 63 | – |
| > 100 | COc1c(Br)cc(-c2nc(C(F)(F)F)cn2-c2ccc(S(C)(=O)=O)cc2)cc1Br | 0 | – |
| – | Cc1cc(F)cc(-c2nc(C(F)(F)F)cn2-c2ccc(S(C)(=O)=O)cc2)c1 | 87 | – |
| – | Cc1ccc(-c2nc(C(F)(F)F)cn2-c2ccc(S(C)(=O)=O)cc2)cc1C | 15 | – |
| 67 | CS(=O)(=O)c1ccc(-n2cc(C(F)(F)F)nc2-c2cc(F)cc(C(F)(F)F)c2)cc1 | – | – |
| > 100 | CN(C)c1c(Cl)cc(-c2nc(C(F)(F)F)cn2-c2ccc(S(C)(=O)=O)cc2)cc1Cl | 25 | – |
| 91 | COc1c(C)cc(-c2nc(C(F)(F)F)cn2-c2ccc(S(C)(=O)=O)cc2)cc1C | 29 | – |
| – | COc1cccc(-c2nc(C(F)(F)F)cn2-c2ccc(S(C)(=O)=O)cc2)c1 | 45 | – |
| – | COc1ccc(-c2nc(C(F)(F)F)cn2-c2ccc(S(C)(=O)=O)cc2)cc1Cl | 92 | ED50 (Rattus norvegicus [6]): 29 mg/kg; ED50 (Rattus norvegicus [7]): 35 mg/kg |
| – | CS(=O)(=O)c1ccc(-n2cc(C(F)(F)F)nc2-c2cccc(Br)c2)cc1 | 84 | – |
| > 100 | Cc1cn(-c2ccc(S(C)(=O)=O)cc2)c(-c2ccc(Cl)cc2)n1 | – | inhibition in vivo at 2 mg/kg (Rattus norvegicus [8]): 53% |
| – | Cc1cccc(-c2nc(C(F)(F)F)cn2-c2ccc(S(C)(=O)=O)cc2)c1 | 77 | ED50 (Rattus norvegicus [5]): 46 mg/kg; ED50 (Rattus norvegicus [3]): 23 mg/kg; Toxicity [9]: 0; Toxicity [10]: 0 |
| > 100 | CS(=O)(=O)c1ccc(-n2cc(CF)nc2-c2ccc(Cl)cc2)cc1 | 36 | – |

| IC50 [1] [µM] | Structure (SMILES) | inhibition in vivo at 2 mg/kg (Rattus norvegicus [2]) [%] | also measured |
| --- | --- | --- | --- |
| > 100 | COCc1cccc(-c2nc(C(F)(F)F)cn2-c2ccc(S(C)(=O)=O)cc2)c1 | – | – |
| > 100 | Cc1ccc(F)cc1-c1nc(C(F)(F)F)cn1-c1ccc(S(C)(=O)=O)cc1 | – | – |
| – | Cc1cc(-c2nc(C(F)(F)F)cn2-c2ccc(S(C)(=O)=O)cc2)ccc1F | 90 | – |
| – | CS(=O)(=O)c1ccc(-c2[nH]cnc2-c2ccc(F)cc2)cc1 | – | NA [11]: inactive; NA [12]: inactive |
| – | Cc1ccccc1-c1nc(C(F)(F)F)cn1-c1ccc(S(C)(=O)=O)cc1 | 95 | ED50 (Rattus norvegicus [5]): 43 mg/kg; ED50 (Rattus norvegicus [3]): 17.8 mg/kg; Toxicity [13]: 0 |
| – | COc1ccc(-c2nc(C(F)(F)F)cn2-c2ccc(S(N)(=O)=O)cc2)cc1F | 89 | ED50 (Rattus norvegicus [5]): 36 mg/kg; ED50 (Rattus norvegicus [4]): 19 mg/kg |
| > 100 | CS(=O)(=O)c1ccc(-n2cc(CSc3ccc(Cl)cc3)nc2-c2ccc(Cl)cc2)cc1 | 0 | – |
| > 100 | Cc1cn(-c2ccc(F)cc2)c(-c2ccc(S(C)(=O)=O)cc2)n1 | – | – |
| > 100 | Cc1cccc(Cl)c1-c1nc(C(F)(F)F)cn1-c1ccc(S(C)(=O)=O)cc1 | – | – |
| > 100 | CN(C)c1cc(-c2nc(C(F)(F)F)cn2-c2ccc(S(C)(=O)=O)cc2)ccc1Cl | 69 | – |
| – | COc1c(F)cc(-c2nc(C(F)(F)F)cn2-c2ccc(S(N)(=O)=O)cc2)cc1F | 100 | – |
| – | COc1c(F)cc(-c2nc(C(F)(F)F)cn2-c2ccc(S(C)(=O)=O)cc2)cc1F | 89 | ED50 (Rattus norvegicus [14]): 26 mg/kg |
| – | Cc1cccc(-c2nc(C(F)(F)F)cn2-c2ccc(S(N)(=O)=O)cc2)c1 | 95 | – |
| – | CS(=O)(=O)c1ccc(-n2cc(C(F)(F)F)nc2-c2ccc(F)c(F)c2)cc1 | 87 | – |
| – | Cc1cc(-c2nc(C(F)(F)F)cn2-c2ccc(S(C)(=O)=O)cc2)ccc1Cl | 64 | – |
| – | CN(C)c1ccc(-c2nc(C(F)(F)F)cn2-c2ccc(S(C)(=O)=O)cc2)cc1Cl | 87 | – |
| – | CS(=O)(=O)c1ccc(-n2cc(C(F)(F)F)nc2-c2cc(Cl)cc(Cl)c2)cc1 | 5 | – |
| – | Cc1ccc(-c2nc(C(F)(F)F)cn2-c2ccc(S(C)(=O)=O)cc2)cc1Cl | 10 | ED50 (Rattus norvegicus [5]): 55 mg/kg; ED50 (Rattus norvegicus [15]): 20.9 mg/kg |

— ChEMBL document CHEMBL1130039, “1,2-Diarylimidazoles as potent, cyclooxygenase-2 selective, and orally active antiinflammatory agents” (J Med Chem, 1997)
